In US20130029964A1, “[5, 6] HETEROCYCLIC COMPOUND” (DAIICHI SANKYO COMPANY, LIMITED, priority 2010, published 2013):

Tested on: ST2 cells, murine bone marrow-derived stromal cells
Experiment: Osteoblast differentiation test (ALP activity)
Format: cell-based
Conditions: Mus musculus, ST-2, 96 h, at 0.1 μg/mL, control group (0.1% DMSO) = 100%, four days of culturing, read-out: alkaline phosphatase activity
Procedure: ST2 cells, murine bone marrow-derived stromal cells, (obtained from RIKEN) were used.
In this test, α-MEM media (obtained from GIBCO BRL Cat. No. 10370-021) containing 10% (v/v) of inactivated calf serum (obtained from Hyclone Laboratories, Inc.) and 1% (v/v) of Penicillin-Streptomycin Liquid (obtained from GIBCO BRL Cat. No. 15140-122) (hereinbelow, abbreviated as 10%-FBS-αMEM) were used. In this test, all culturing was performed in a CO2 incubator (37° C., 95% humidity, 5% CO2).
The aforementioned cells were detached with 2 mL of a 0.25% trypsin solution (obtained from GIBCO BRL Cat. No. 15050-065) and dispersed in 10 mL of 10%-FBS-αMEM. Subsequently, the cells were collected by centrifugation (25° C., 800 rpm, five minutes). Then, a cell suspension containing 40000 of the cells/mL of 10%-FBS-αMEM was prepared. The cell suspension was then dispensed into 96-well plates (the product of Falcon), 100 μL per well, at a density of 4000 cells/well, followed by culturing for 24 hours. To the wells, except for the below-described well containing a control group, the compound was dispensed at final concentrations of 0.01, 0.03, 0.1, and 0.3 μg/ml. To the well of a control group, DMSO was dispensed at a final concentration of 0.1% (v/v). After four days of culturing, the activity of alkaline phosphatase (ALP) was measured in each group.
The measurement of ALP activity was performed as follows. That is, the medium in each well of the culture plates was completely removed. Each well was then washed by dispensing 100 μL of Dulbecco's phosphate buffer (obtained from GIBCO BRL Cat. No. 14190-144) and then removing it. A cell lysate solution containing 10 mM MgCl2 and 2% (v/v) TritonX-100 (Sigma) was prepared and dispensed at 50 μL/well, followed by stirring at room temperature for five minutes. An ALP substrate solution containing 50 mM diethanolamine (Wako Pure Chemical Industries, Ltd., Cat. No. 099-03112) and 20 mM p-nitrophenyl phosphate (Wako Pure Chemical Industries, Ltd., Cat. No. 147-02343) was prepared and dispensed at 50 μL/well, and the plates were left to stand at room temperature for 10 minutes. Subsequently, absorbance was measured by a microplate reader (Bio-Rad Laboratories, Inc.). Setting the measurement value of the control group of each plate at 100%, alkaline phosphatase activity (increase (%)) in the test compound-addition group was calculated, which was assessed as the degree of osteoblast differentiation.

| SMILES | activity at 0.1 µg/mL |
| --- | --- |
| Cn1ccc(-c2ccn3c(-c4ccc(OCCO)cc4)cnc3c2)c1 [Example 67] | ≥ 200% |
| CC(=O)N1CC=C(c2ccn3c(-c4ccc(OCCOC5CCOCC5)cc4)cnc3c2)CC1 [Example 68] | ≥ 200% |
| N#Cc1ccc2ncc(-c3ccc(OCCO)cc3)n2c1 [Example 69] | ≥ 200% |
| OCCOc1ccc(-c2cnc3cc(N4CCOCC4)ccn23)cc1 [Example 70] | ≥ 200% |
| OCCOc1ccc(-c2cnc3ccc(-c4ccncc4)cn23)cc1 [Example 71] | ≥ 200% |
| OCCOc1ccc(-c2cnc3cc(-c4ccncc4)ccn23)cc1 [Example 72] | ≥ 200% |
| c1cc(-c2ccn3c(-c4ccc(OCCOC5CCOCC5)cc4)cnc3c2)ccn1 [Example 74] | ≥ 200% |
| N#Cc1ccn2c(-c3ccc(OCCO)cc3)cnc2c1 [Example 75] | ≥ 200% |
| OCCOC1CCN(c2cnc3cc(-c4ccncc4)ccn23)CC1 [Example 76] | ≥ 200% |
| CC(=O)N1CC=C(c2ccn3c(N4CCC(OCCOC5CCOCC5)CC4)cnc3c2)CC1 [Example 77] | ≥ 200% |
| Clc1ccn2c(-c3ccc(OCCOC4CCOCC4)cc3)cnc2c1 [Example 78] | ≥ 200% |
| c1ccn2c(N3CCC(OCCOC4CCOCC4)CC3)cnc2c1 [Example 79] | ≥ 200% |
| Fc1ccc2ncc(-c3ccc(OCCOCC4CCOCC4)cc3)n2c1 [Example 80] | ≥ 200% |
| COCCOCCOc1ccc(-c2cnc3ccc(F)cn23)cc1 [Example 81] | ≥ 200% |
| Fc1ccc2ncc(-c3ccc(OCCOCCOC4CCOCC4)cc3)n2c1 [Example 82] | ≥ 200% |
| COC1COCC1OCCOc1ccc(-c2cnc3ccc(F)cn23)cc1 (stereo not shown) [Example 84] | ≥ 200% |
| OC1COCC1OCCOc1ccc(-c2cnc3ccc(F)cn23)cc1 (stereo not shown) [Example 86] | ≥ 200% |
| Fc1ccc2ncc(-c3ccc(OCCOC[C@H]4COCCO4)cc3)n2c1 [Example 87] | ≥ 200% |
| Fc1ccc2ncc(-c3ccc(OCCOC[C@@H]4COCCO4)cc3)n2c1 [Example 88] | ≥ 200% |
| N#Cc1ccc2ncc(-c3ccc(OCCOC4COCC4O)cc3)n2c1 (stereo not shown) [Example 91] | ≥ 200% |
| N#Cc1ccc2ncn(-c3ccc(OCCOC[C@H]4COCCO4)cc3)c2c1 [Example 92] | ≥ 200% |
| N#Cc1ccc2ncc(-c3ccc(OCCOC[C@H]4COCCO4)cc3)n2c1 [Example 93] | ≥ 200% |
| N#Cc1ccc2ncn(-c3ccc(OCCOC4COCC4O)cc3)c2c1 (stereo not shown) [Example 94] | ≥ 200% |
| FC(F)Oc1ccc2ncn(-c3ccc(OCCOC[C@H]4COCCO4)cc3)c2c1 [Example 95] | ≥ 200% |
| OC1COCC1OCCOc1ccc(-n2cnc3ccc(OC(F)F)cc32)cc1 (stereo not shown) [Example 96] | ≥ 200% |

| SMILES | activity at 0.1 µg/mL |
| --- | --- |
| OCCNc1ccc(-n2cnc3ccccc32)cc1 [Example 97] | ≥ 200% |
| c1ccn2c(-c3ccc(OCCOC4CCOCC4)cc3)cnc2c1 [Example 98] | ≥ 200% |
| CC(C)(C)OC(=O)NCCOc1ccc(-n2cnc3ccccc32)cc1 [Example 99] | ≥ 200% |
| c1ccc2c(c1)ncn2-c1ccc(OCCOC2CCOCC2)cc1 [Example 100] | ≥ 200% |
| c1ccc2c(c1)ncn2-c1ccc(NCCOC2CCOCC2)cc1 [Example 101] | ≥ 200% |
| O=C(c1ccc(-c2ccn3c(-c4ccc(OCCO)cc4)cnc3c2)cc1)N1CCOCC1 [Example 102] | ≥ 200% |
| O=C(c1ccc(-c2ccn3c(N4CCC(OCCO)CC4)cnc3c2)cc1)N1CCOCC1 [Example 103] | ≥ 200% |
| Cn1cc(-c2ccn3c(N4CCC(OCCOC5CCOCC5)CC4)cnc3c2)cn1 [Example 104] | ≥ 200% |
| Cn1cc(-c2ccn3c(N4CCC(OCCO)CC4)cnc3c2)cn1 [Example 105] | ≥ 200% |
| CN(C)C(=O)c1cccc(-c2ccn3c(-c4ccc(OCCO)cc4)cnc3c2)c1 [Example 106] | ≥ 200% |
| CN(C)C(=O)c1ccc(-c2ccn3c(N4CCC(OCCO)CC4)cnc3c2)cc1 [Example 107] | ≥ 200% |
| c1ccn2c(-c3ccc(NCCOC4CCOCC4)cc3)cnc2c1 [Example 109] | ≥ 200% |
| Fc1ccc2ncc(-c3ccc(OCCO[C@@H]4CCOC4)cc3)n2c1 [Example 110] | ≥ 200% |
| Fc1ccc2ncc(-c3ccc(NCCOC4CCOCC4)cc3)n2c1 [Example 111] | ≥ 200% |
| c1cn(-c2ccc3ncc(-c4ccc(OCCOC5CCOCC5)cc4)n3c2)cn1 [Example 112] | ≥ 200% |
| COC1COCC1OCCOc1ccc(-c2cnc3ccc(C#N)cn23)cc1 (stereo not shown) [Example 114] | ≥ 200% |
| OCCOc1ccc(-c2cnc3ccccn23)cc1 [Example 115] | ≥ 200% |
| OCCOc1ccc(-c2cnc3ccc(Cl)cn23)cc1 [Example 116] | ≥ 200% |
| OCCOc1ccc(-c2cnn3ccccc23)cc1 [Example 117] | ≥ 200% |
| OCCNc1ccc(-c2cnc3ccc(Cl)cn23)cc1 [Example 118] | ≥ 200% |
| COc1ccn2c(-c3ccc(NCCO)cc3)cnc2c1 [Example 119] | ≥ 200% |
| COc1ccn2ncc(-c3ccc(OCCO)cc3)c2c1 [Example 120] | ≥ 200% |
| COc1ccn2ncc(-c3ccc(NCCO)cc3)c2c1 [Example 121] | ≥ 200% |
| OCCNc1ccc(-c2cnn3ccccc23)cc1 [Example 122] | ≥ 200% |
| COc1ccc2ncc(-c3ccc(NCCO)cc3)n2c1 [Example 123] | ≥ 200% |

| SMILES | activity at 0.1 µg/mL |
| --- | --- |
| COc1ccc2ncc(-c3ccc(OCCO)cc3)n2c1 [Example 124] | ≥ 200% |
| COc1ccc2c(-c3ccc(OCCO)cc3)cnn2c1 [Example 125] | ≥ 200% |
| CCOc1ccc2c(-c3ccc(OCCO)cc3)cnn2c1 [Example 126] | ≥ 200% |
| c1cc(-c2ccc3c(-c4ccc(OCCOC5CCOCC5)cc4)cnn3c2)ccn1 [Example 127] | ≥ 200% |
| OCCOc1ccc(-n2cnc3cc(-c4ccccn4)ccc32)cc1 [Example 128] | ≥ 200% |
| CS(=O)(=O)c1ccc(-c2ccc3c(c2)ncn3-c2ccc(OCCO)cc2)cn1 [Example 129] | ≥ 200% |
| O=C(c1ccc(-c2ccc3c(c2)ncn3-c2ccc(OCCO)cc2)nc1)N1CCOCC1 [Example 130] | ≥ 200% |
| Clc1ccc2ncc(-c3ccc(OCCOC4CCOCC4)cc3)n2c1 [Example 131] | ≥ 200% |
| O=C(c1ccc(-c2ccn3c(-c4ccc(NCCOC5CCOCC5)cc4)cnc3c2)nc1)N1CCOCC1 [Example 132] | ≥ 200% |
| O=C(c1ccc(-c2ccn3c(-c4ccc(OCCOC5CCOCC5)cc4)cnc3c2)cn1)N1CCOCC1 [Example 133] | ≥ 200% |
| CN(C)S(=O)(=O)c1ccc(-c2ccn3c(-c4ccc(OCCO)cc4)cnc3c2)cc1 [Example 134] | ≥ 200% |
| Clc1ccc2ncc(-c3ccc(NCCOC4CCOCC4)cc3)n2c1 [Example 135] | ≥ 200% |
| Cn1cc(-c2ccc3ncc(-c4ccc(NCCOC5CCOCC5)cc4)n3c2)cn1 [Example 136] | ≥ 200% |
| O=C(C1CC1)N1CCC(OCCNc2ccc(-c3cnc4ccccn34)cc2)CC1 [Example 137] | ≥ 200% |
| O=C(C1CC1)N1CCC(OCCOC2CCN(c3cnc4ccc(Cl)cn34)CC2)CC1 [Example 138] | ≥ 200% |
| Clc1ccn2c(N3CCC(OCCOC4CCOCC4)CC3)cnc2c1 [Example 139] | ≥ 200% |
| O=C(C1CC1)N1CCC(OCCOC2CCN(c3cnc4ccc(-c5ccncc5)cn34)CC2)CC1 [Example 140] | ≥ 200% |
| c1cc(-c2ccc3ncc(-c4ccc(OCCOC5CCOCC5)cc4)n3c2)ccn1 [Example 141] | ≥ 200% |
| c1cc(-c2ccc3ncc(-c4ccc(NCCOC5CCOCC5)cc4)n3c2)ccn1 [Example 142] | ≥ 200% |
| c1ccn2ncc(-c3ccc(NCCOC4CCOCC4)cc3)c2c1 [Example 143] | ≥ 200% |
| Fc1ccc2ncc(-c3ccc(OCCOC4CCOCC4)cc3)n2c1 [Example 144] | ≥ 200% |
| Cc1ccc2ncc(-c3ccc(OCCOC4CCOCC4)cc3)n2c1 [Example 145] | ≥ 200% |
| O=C(c1ccc(-c2ccc3c(-c4ccc(OCCO)cc4)cnn3c2)nc1)N1CCOCC1 [Example 146] | ≥ 200% |
